This is an account of results in EP1828393B1 (priority 2004, dated 2006).

The data set can be described thus: Miscibility of glycolonitrile with water. In kind it is physicochemical. The settings on record: 25 °C. From the text: As the reaction progresses, the α-hydroxynitrile dissolves into the aqueous phase, and eventually a single phase product mixture is obtained. The reaction may also be run by adding the α-hydroxynitrile to the reaction mixture at a rate approximately equal to the enzymatic hydrolysis reaction rate, thereby maintaining a single-phase aqueous reaction mixture, and avoiding the potential problem of substrate inhibition of the enzyme at high starting material concentrations.

For the compound `N#CCO` [Glycolonitrile, glycolonitrile], the miscibility with water entry is on record as “completely miscible with water in all proportions”.
